Patent US11414416B1, “Compounds and uses thereof” (Foghorn Therapeutics Inc., priority 2019, dated 2022)

These compounds were tested against Nanoluciferase-BRD9 fusion protein (Homo sapiens (Human), UniProt Q9H8M2) (assay: SYO1 BRD9 NanoLuc degradation assay). Conditions: Table 5A; SYO-1 cells expressing 3×FLAG-NLuc-BRD9, 6 hours; read-out: SYO1 BRD9-NanoLuc degradation IC50.
Chain of Nanoluciferase-BRD9 fusion protein (Q9H8M2 whole entry, the tested form may be a part): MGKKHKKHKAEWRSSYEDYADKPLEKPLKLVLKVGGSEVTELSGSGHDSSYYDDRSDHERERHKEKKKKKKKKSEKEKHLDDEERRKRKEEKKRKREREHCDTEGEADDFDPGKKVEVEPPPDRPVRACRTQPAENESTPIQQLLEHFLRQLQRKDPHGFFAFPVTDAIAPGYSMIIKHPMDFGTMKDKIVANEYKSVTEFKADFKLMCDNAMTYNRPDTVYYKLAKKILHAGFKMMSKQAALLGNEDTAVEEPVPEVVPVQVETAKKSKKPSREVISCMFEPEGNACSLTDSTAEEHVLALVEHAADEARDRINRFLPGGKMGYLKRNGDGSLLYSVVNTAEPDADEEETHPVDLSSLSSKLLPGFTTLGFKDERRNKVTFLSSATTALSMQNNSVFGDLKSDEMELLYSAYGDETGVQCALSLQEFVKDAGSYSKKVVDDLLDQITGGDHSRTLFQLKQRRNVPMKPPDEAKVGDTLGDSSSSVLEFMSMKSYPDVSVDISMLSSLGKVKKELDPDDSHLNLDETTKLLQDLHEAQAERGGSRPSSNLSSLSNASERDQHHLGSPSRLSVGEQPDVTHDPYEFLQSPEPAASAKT
Assay type: cell-based
Procedure, shortened: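 Degradation was read as loss of nanoluciferase signal (Nano-Glo) after 6 h compound exposure in a stable SYO-1 line carrying 3×FLAG-NLuc-BRD9 (8000 cells/well). Normalised between DMSO (high) and a 1 μM known BRD9 degrader (low).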
COc1cc(-c2cn(C)c(=O)c3cnccc23)cc(OC)c1CN(C)CCOCCN1CCN(c2ccc3c(c2)C(=O)N(C2CCC(=O)NC2=O)C3=O)CC1 (stereo not shown) [Compound D46, 5-(4-(2-(2-((2,6-dimethoxy-4-(2-methyl-1-oxo-1,2-dihydro-2,7-naphthyridin-4-yl)benzyl)(methyl)amino)ethoxy)ethyl)piperazin-1-yl)-2-(2,6-dioxopiperidin-3-yl)isoindoline-1,3-dione formic acid] showed a DC50 of under 10 nM.

Same assay, conditions: Table 5B; SYO-1 cells expressing 3×FLAG-NLuc-BRD9, 6 hours; read-out: SYO1 BRD9-NanoLuc degradation IC50
In the case of COc1cc(-c2cn(C)c(=O)cc2C)cc(OC)c1CN1CC(CN2CCC3(CC2)CN(c2ccc4c(c2)C(=O)N(C2CCC(=O)NC2=O)C4=O)C3)C1 (stereo not shown) [Compound D349], the DC50 is reported as under 10 nM.
Compound COc1cc(-c2cn(C)c(=O)c3cnccc23)cc(OC)c1CN1CC2(C1)CN(C(=O)C#Cc1ccc3c(c1)C(=O)N(C1CCC(=O)NC1=O)C3=O)C2 (stereo not shown) [Compound D185] has a DC50 of under 10 nM.
COc1cc(-c2cc(C)c(=O)n(C)c2)c(OC)cc1CN1CC(CN2CCC3(CC2)CN(c2ccc4c(c2)C(=O)N(C2CCC(=O)NC2=O)C4=O)C3)C1 (stereo not shown) [Compound D353] was tested, and the DC50 was under 10 nM.
Compound COc1cc(-c2cn(C)c(=O)c3cnccc23)cc(OC)c1CN(C)C(=O)CCCCNC1CCC12CN(c1ccc3c(c1)C(=O)N(C1CCC(=O)NC1=O)C3=O)C2 (stereo not shown) [Compound D255] has a DC50 of under 10 nM.
In the case of COc1cc(-c2cn(C)c(=O)c(C)c2C)c(OC)cc1CN1CC(CN2CCC3(CC2)CN(c2ccc4c(c2)C(=O)N(C2CCC(=O)NC2=O)C4=O)C3)C1 (stereo not shown) [Compound D354], the DC50 is reported as under 10 nM.
COc1cc(-c2cn(C)c(=O)c3cnccc23)cc(OC)c1CN1CC(CC(=O)NC2CC3(CCN(c4ccc5c(c4)C(=O)N(C4CCC(=O)NC4=O)C5=O)CC3)C2)C1 (stereo not shown) [Compound D189] showed a DC50 of under 10 nM.
With COc1cc(-c2cn(C)c(=O)c3cnccc23)cc(OC)c1CN(C)C(=O)CCCCN1CCCC2(CC(Oc3ccc4c(c3)C(=O)N([C@H]3CCC(=O)NC3=O)C4=O)C2)C1 (stereo partly shown) [Compound D262] the DC50 was under 10 nM.
For COc1cc(-c2cn(C)c(=O)c3cnccc23)cc(OC)c1CN1CCC2C(C1)CN2C(=O)C#Cc1ccc2c(c1)C(=O)N(C1CCC(=O)NC1=O)C2=O (stereo not shown) [Compound D242], the DC50 was under 10 nM.
Work on COc1cc(-c2cn(C)c(=O)c3cnccc23)cc(OC)c1CN1CCC2(CC1)CCN(CC#Cc1ccc3c(c1)C(=O)N(C1CCC(=O)NC1=O)C3=O)C2 (stereo not shown) [Compound D308] yielded a DC50 of under 10 nM.
COc1cc(-c2cn(C)c(=O)c3cnccc23)cc(OC)c1CN1CC(n2cc(CCOc3ccc4c(c3)C(=O)N(C3CCC(=O)NC3=O)C4=O)nn2)C1 (stereo not shown) [Compound D298] gave a DC50 of under 10 nM.
For COc1cc(-c2cn(C)c(=O)c3cnccc23)cc(OC)c1CN(C)CCCCN1CCC2(C1)CN(c1ccc3c(c1)C(=O)N(C1CCC(=O)NC1=O)C3=O)C2 (stereo not shown) [Compound D226], the DC50 was under 10 nM.
COc1cc(-c2cn(C)c(=O)c3cnccc23)cc(OC)c1CN(C)CCn1cc(CCOc2ccc3c(c2)C(=O)N(C2CCC(=O)NC2=O)C3=O)nn1 (stereo not shown) [Compound D274] was tested, and the DC50 was under 10 nM.
Compound COc1cc(-c2ccc(=O)n(C)c2)cc(OC)c1CN1CCN(c2ccc3c(c2)C(=O)N(C2CCC(=O)NC2=O)C3=O)CC1 (stereo not shown) [Compound D344] has a DC50 of under 10 nM.
In the case of COc1cc(-c2cn(C)c(=O)c3cnccc23)cc(OC)c1CN1CC(n2cc(COC3CN(c4ccc5c(c4)C(=O)N(C4CCC(=O)NC4=O)C5=O)C3)nn2)C1 (stereo not shown) [Compound D301], the DC50 is reported as under 10 nM.
COc1cc(-c2cn(C)c(=O)c3cnccc23)cc(OC)c1CN1CCC(n2cc(COCCOc3ccc4c(c3)C(=O)N(C3CCC(=O)NC3=O)C4=O)nn2)CC1 (stereo not shown) [Compound D290] gave a DC50 of under 10 nM.
COc1cc(-c2cn(C)c(=O)c3cnccc23)cc(OC)c1CN(C)CCCCN1CCCC2(CC(Oc3ccc4c(c3)C(=O)N([C@@H]3CCC(=O)NC3=O)C4=O)C2)C1 (stereo partly shown) [Compound D244] gave a DC50 of under 10 nM.
Work on COc1cc(-c2cn(C)c(=O)c3cnccc23)cc(OC)c1CN(C)C(=O)CCCCNC1CC12CCN(c1ccc3c(c1)C(=O)N(C1CCC(=O)NC1=O)C3=O)C2 (stereo not shown) [Compound D258] yielded a DC50 of under 10 nM.
With COc1cc(-c2cc(C)c(=O)n(C)n2)cc(OC)c1CN1CCC2(CC1)CN(c1ccc3c(c1)CN(C1CCC(=O)NC1=O)C3=O)C2 (stereo not shown) [Compound D357] the DC50 was under 10 nM.
Work on COc1cc(-c2cn(C)c(=O)c3cnccc23)cc(OC)c1CN1CCC(C(=O)N2CCC3(CC2)CC(Oc2ccc4c(c2)C(=O)N(C2CCC(=O)NC2=O)C4=O)C3)CC1 (stereo not shown) [Compound D221] yielded a DC50 of under 10 nM.
COc1cc(-c2cn(C)c(=O)c3cnccc23)cc(OC)c1CN1CC2(CCN(CC#Cc3ccc4c(c3)C(=O)N(C3CCC(=O)NC3=O)C4=O)CC2)C1 (stereo not shown) [Compound D307] showed a DC50 of under 10 nM.
COc1cc(-c2cn(C)c(=O)c3cnccc23)cc(OC)c1CN(C)CCCn1cc(COC2CCN(c3ccc4c(c3)C(=O)N(C3CCC(=O)NC3=O)C4=O)CC2)nn1 (stereo not shown) [Compound D287] gave a DC50 of under 10 nM.
COc1cc(-c2cn(C)c(=O)c3cnccc23)cc(OC)c1CN(C)CCOCCn1cc(CCOc2ccc3c(c2)C(=O)N(C2CCC(=O)NC2=O)C3=O)nn1 (stereo not shown) [Compound D292] showed a DC50 of 100 to 1000 nM.
COc1cc(-c2cn(C)c(=O)c3cnccc23)cc(OC)c1CN(C)CCCn1cc(COCCOc2ccc3c(c2)C(=O)N(C2CCC(=O)NC2=O)C3=O)nn1 (stereo not shown) [Compound D284] was tested, and the DC50 was 10 to 100 nM.
COc1cc(-c2cn(C)c(=O)c3cnccc23)cc(OC)c1CN1CCC(n2cc([C@H](C)Oc3ccc4c(c3)C(=O)N(C3CCC(=O)NC3=O)C4=O)nn2)CC1 (stereo partly shown) [Compound D320] gave a DC50 of under 10 nM.
With COc1cc(-c2cn(C)c(=O)c3cnccc23)cc(OC)c1CN1CCN(C(=O)C#Cc2ccc3c(c2)C(=O)N(C2CCC(=O)NC2=O)C3=O)CC1 (stereo not shown) [Compound D216] the DC50 was under 10 nM.
Compound COc1cc(-c2cn(C)c(=O)c3ccccc23)cc(OC)c1CN1CC(CN2CCC3(CC2)CN(c2ccc4c(c2)CN(C2CCC(=O)NC2=O)C4=O)C3)C1 (stereo not shown) [Compound D360] has a DC50 of under 10 nM.
In the case of COc1cc(-c2cn(C)c(=O)c3cnccc23)cc(OC)c1CN1CCC(c2cc(COc3ccc4c(c3)C(=O)N(C3CCC(=O)NC3=O)C4=O)on2)CC1 (stereo not shown) [Compound D322], the DC50 is reported as under 10 nM.
COc1cc(-c2cn(C)c(=O)c3cnccc23)cc(OC)c1CN(C)CCOCCn1cc(COC2CN(c3ccc4c(c3)C(=O)N(C3CCC(=O)NC3=O)C4=O)C2)nn1 (stereo not shown) [Compound D295] gave a DC50 of 100 to 1000 nM.
With COc1cc(-c2cn(C)c(=O)c3cnccc23)cc(OC)c1CN(C)C(=O)CCCCN1CCC2(C1)CN(c1ccc3c(c1)C(=O)N(C1CCC(=O)NC1=O)C3=O)C2 (stereo not shown) [Compound D203] the DC50 was under 10 nM.
Compound COc1cc(-c2cn(C)c(=O)c3cnccc23)cc(OC)c1CN(C)CCCCN1CCC2(CC1)CN(c1ccc3c(c1)C(=O)N(C1CCC(=O)NC1=O)C3=O)C2 (stereo not shown) [Compound D222] has a DC50 of under 10 nM.
With COc1cc(-c2cn(C)c(=O)c3cnccc23)cc(OC)c1CN1CCC2(CC1)CN(CC#Cc1ccc3c(c1)C(=O)N(C1CCC(=O)NC1=O)C3=O)C2 (stereo not shown) [Compound D235] the DC50 was under 10 nM.

Same assay, conditions: Table 5C; SYO-1 cells expressing 3×FLAG-NLuc-BRD9, 6 hours; read-out: SYO1 BRD9-NanoLuc degradation IC50
In the case of COc1cc(-c2cc(C)c(=O)n(C)c2C)cc(OC)c1CN1CCC2(C1)CN(c1ccc3c(c1)C(=O)N(C1CCC(=O)NC1=O)C3)C2 (stereo not shown) [Compound D396], the DC50 is reported as under 10 nM.
Work on COc1cc(-c2cn(C)c(=O)c3cnccc23)cc(OC)c1CN1CCC2(CC1)CN(c1ccc3c(c1)CN(C1CCC(=O)NC1=O)C3=O)C2 (stereo not shown) [Compound D374] yielded a DC50 of under 10 nM.
COc1cc(-c2cn(C)c(=O)c3nn(C)cc23)cc(OC)c1CN1CCC2(CC1)CN(c1ccc3c(c1)C(=O)N(C1CCC(=O)NC1=O)C3)C2 (stereo not shown) [Compound D421] was tested, and the DC50 was under 10 nM.
Compound COc1cc(-c2cn(C)c(=O)c3ccnn23)cc(OC)c1CN1CCC2(CC1)CN(c1ccc3c(c1)C(=O)N(C1CCC(=O)NC1=O)C3)C2 (stereo not shown) [Compound D456] has a DC50 of under 10 nM.
Work on COc1cc(-c2cn(C)c(=O)c3cnccc23)cc(OC)c1CN1CCC2(CC1)CN(c1ccc3c(c1)C(=O)N(C1CC(=O)NC1=O)C3)C2 (stereo not shown) [Compound D382] yielded a DC50 of under 10 nM.
With Cc1cc(-c2ccc(N3CCN(c4ccc5c(c4)C(=O)N(C4CCC(=O)NC4=O)C5)CC3)cc2)cn(C)c1=O (stereo not shown) [Compound D459] the DC50 was under 10 nM.
COc1cc(-c2cn(C)c(=O)cn2)cc(OC)c1CN1CCC2(CC1)CN(c1ccc3c(c1)C(=O)N(C1CCC(=O)NC1=O)C3)C2 (stereo not shown) [Compound D429] was tested, and the DC50 was over 1000 nM.
COc1cc(-c2cc(C(F)F)c(=O)n(C)c2)cc(OC)c1CN1CC(C#Cc2ccc3c(c2)CN(C2CCC(=O)NC2=O)C3=O)C1 (stereo not shown) [Compound D441] showed a DC50 of under 10 nM.
Work on COc1cc(-c2cn(C)c(=O)c3cnccc23)cc(OC)c1CN1CCC2(CC1)CN(c1ccc3c(c1)C(=O)N(C1CCCC(=O)NC1=O)C3=O)C2 (stereo not shown) [Compound D388] yielded a DC50 of under 10 nM.
For COc1cc(-c2cc(C(F)F)c(=O)n(C)c2)cc(OC)c1CN1CCC2(C1)CN(c1ccc3c(c1)CN(C1CCC(=O)NC1=O)C3=O)C2 (stereo not shown) [Compound D408], the DC50 was under 10 nM.
With COc1cc(-c2cn(C)c(=O)c(C)c2C)cc(OC)c1CN1CCC2(C1)CN(c1ccc3c(c1)C(=O)N(C1CCC(=O)NC1=O)C3=O)C2 (stereo not shown) [Compound D430] the DC50 was under 10 nM.
Compound COc1cc(-c2cn(C)c(=O)c3[nH]cc(C)c23)cc(OC)c1CN1CCC2(CC1)CN(c1ccc3c(c1)C(=O)N(C1CCC(=O)NC1=O)C3=O)C2 (stereo not shown) [Compound D418] has a DC50 of under 10 nM.
With COc1cc(-c2cn(C)c(=O)c3cnccc23)cc(OC)c1CN1CCC2(CC1)CN(c1ccc3c(c1)C(=O)N(C1CCC(=O)NC1=O)C3=O)C2 (stereo not shown) [Compound D373] the DC50 was under 10 nM.
With COc1cc(-c2cn(C)c(=O)c3cn(C)nc23)cc(OC)c1CN1CCN(CCC2CCN(c3ccc4c(c3)C(=O)N(C3CCC(=O)NC3=O)C4)CC2)CC1 (stereo not shown) [Compound D400] the DC50 was under 10 nM.
COc1cc(-c2cc(C)c(=O)n(C)c2)cc(OC)c1CN1CCC(C#Cc2ccc3c(c2)C(=O)N(C2CCC(=O)NC2=O)C3)C1 (stereo not shown) [Compound D442] gave a DC50 of under 10 nM.
C=CCn1cc(-c2cc(OC)c(CN3CCC4(C3)CN(c3ccc5c(c3)C(=O)N(C3CCC(=O)NC3=O)C5)C4)c(OC)c2)cc(C(F)F)c1=O (stereo not shown) [Compound D404] gave a DC50 of under 10 nM.
COc1cc(-c2cn(C)c(=O)c3cnccc23)cc(OC)c1CN1CC(Oc2ccc3c(c2)CN(C2CCC(=O)N(COC(=O)[C@@H](N)C(C)C)C2=O)C3=O)C1 (stereo partly shown) [Compound D384] showed a DC50 of under 10 nM.
